Assay results from patent publication US10028989B2, “Composition comprising Retinol, a precursor or a reaction product of it and a plant extract from at least one Chamomilla plant for the treatment of cancer” (ALPINIA LAUDANUM INSTITUTE OF PHYTOPHARMACEUTICAL SCIENCES …, priority 2010, dated 2018).
Entries after “also recorded” stand apart in the source; their conditions may differ.

Assays:
[1] = system: H460 human large cell lung cancer cell line; experiment: Cellular growth of H460 cells, AMT without chamomile, with MR15E14 or with CHARE (Example 12); assay type: cell-based; details: extracts 21 μg/ml, 1% AMT, retinoic acid 1 μg/ml or 1% ethanol, 6 days, FIG. 3A/3B
Protocol: (§1) The following experiments were performed to compare the composition of the present invention with the teaching of WO 03101479 A1: The human large cell lung cancer cell line, H460, was obtained from the American Type Culture Collection. The cells were cultivated in RPMI-1640 medium containing 10% FBS and kept in a humidified incubator at 37° C. and 5% CO2. Cultures used in subsequent experiments were passaged less than 25 times. The H460 cells were seeded at 14375 cells/well (cell concentration of 10,000 cells/ml) in 12 well plates and were left to adhere overnight.
The H460 cells were incubated with the samples and sample pairs for a total of 6 days with one dose and media refreshment. After 6 days, all cells were harvested to be analyzed. The cell number was determined using flow cytometry. Live cells were differentiated from dead cells by adding Propidium iodide (PI). In short, cells were trypsinized, centrifuged and resuspended in 500 μl of media. 2 μl of PI (1 mg/ml) was added to 400 μl of cell suspension. Since the cells number present in 10 μl of the cell suspension was measured, multiple measurements for each well were taken. […] Solvent control was set at 100%.

[2] = system: H460 human large cell lung cancer cell line; experiment: Cellular growth of H460 cells, flow cytometry cell count with PI (Example 11); assay type: cell-based; details: retinoic acid 1 μg/ml, extracts 21 μg/ml, 6 days, 2% ethanol, FIG. 2
Protocol: as §1, with “The” for “The following experiments were performed to compare the composition of the present invention with the teaching of WO 03101479 A1: The”
MR15E14, CHARE and Retinoic acid prepared as described in examples 2, 4 and 9 respectively including a solvent control (2% ethanol) were added to the cells. Media were replaced once after 3 days of incubation with fresh media and samples. After 6 days, all cells were harvested to be analyzed. The cell number was determined using flow cytometry. Live cells were differentiated from dead cells by adding Propidium iodide (PI). Live cells would be PI negative since the dye would be excluded from viable cells.
In short, cells were trypsinized, centrifuged and resuspended in 500 μl of media. 2 μl of PI (1 mg/ml) was added to 400 μl of cell suspension. Since the cells number present in 10 μl of the cell suspension was measured, multiple measurements for each well were taken.
Solvent control was set at 100%.

[3] = system: Pan02 murine pancreatic adenocarcinoma; experiment: Efficacy study in the syngenic orthotopic Pan02 tumor model (Example 15); assay type: in vivo, female C57BL/6 mice; details: oral, 21 days
Text: The purpose of this study was to obtain information about the efficacy of the oral combination of Chamomile extract (MR31E25C1 and Retinoic acid (RetAcid) in a syngenic orthotropic PAN02 tumor murine model.
Young (approximately 7 weeks) female C57BL/6 mice were purchased from the National Cancer Institute (Frederick, Md.) and maintained in Aurigon Life Science GmbH's animal care facility with ad libitum access to water and mouse chow (Ssniff® R/M-H). The animals were divided into groups of 10 animals.
All animals, except those in the non-inoculated control group, were given an intrapancreatic injection of 2.5×10^5 Pan02 tumor cells each. Pan02 is a murine pancreatic adenocarcinoma cell line syngeneic to the C57BL/6 species. First treatment was given orally 15 days after the inoculation for a total period of 21 days.
Necropsy was performed at the end of the in-life phase or immediately on animals found dead or killed in extremis. The weights of the brain, whole pancreas, pancreatic tumor, spleen, and liver were determined and the number/size of metastases on the surface of the spleen and liver, peritoneal, kidney, ovary, diaphragm metastases, and metastases of the lymph nodes (if applicable) were recorded. Additionally, the size of the pancreatic tumors of the animals was measured.
The groups were as follows:
Group 1: Non-inoculated, untreated control group. […]

[4] = system: A172 human glioblastoma cell line; experiment: Cellular growth of A172 cells, live cell count with Trypan Blue (Example 10); assay type: cell-based; details: retinyl acetate 1 μg/ml, 6 days, FIG. 1A
Protocol: The human glioblastoma cell lines A172 and U87 MG were cultivated in culture medium containing 10% FBS and kept in a humidified incubator at 37° C. and 5% CO2. Cultures used in subsequent experiments were passaged less than 25 times. The cells were seeded at 100,000 cells in T25 cm2 culture flasks (cell concentration of 10,000 cells/ml). MR15E7 and Retinyl Acetate prepared according to examples 1 and 8 respectively were added alone as individual or together in combination (A172 FIGS. 1A and U87 FIG. 1B). The solvent control was 2% ethanol. Media were replaced once after 3 days of incubation with fresh media and samples. After 6 days, all cells were harvested to be analyzed. The cell number was determined using a cell counter (Countess® automated cell counter, Invitrogen). Live cells were differentiated from dead cells by adding Trypan Blue. Live cells would be Trypan Blue negative since the dye would be excluded from viable cells. […] Solvent control was set at 100%. […] The solvent control and the final ethanol concentration for every well was 2%.

[5] = system: U87 MG human glioblastoma cell line; experiment: Cellular growth of U87 MG cells, live cell count with Trypan Blue (Example 10); assay type: cell-based; details: MR15E7 30 μg/ml, retinyl acetate 1 μg/ml, 6 days, FIG. 1B
Protocol: The human glioblastoma cell lines A172 and U87 MG were cultivated in culture medium containing 10% FBS and kept in a humidified incubator at 37° C. and 5% CO2. Cultures used in subsequent experiments were passaged less than 25 times. The cells were seeded at 100,000 cells in T25 cm2 culture flasks (cell concentration of 10,000 cells/ml). MR15E7 and Retinyl Acetate prepared according to examples 1 and 8 respectively were added alone as individual or together in combination (A172 FIGS. 1A and U87 FIG. 1B). The solvent control was 2% ethanol.
Media were replaced once after 3 days of incubation with fresh media and samples. After 6 days, all cells were harvested to be analyzed. The cell number was determined using a cell counter (Countess® automated cell counter, Invitrogen).
Live cells were differentiated from dead cells by adding Trypan Blue. Live cells would be Trypan Blue negative since the dye would be excluded from viable cells.
Solvent control was set at 100%. […] The potential growth inhibitory effects of retinyl acetate (1 μg/ml), MR15E7 (30 μg/ml) and the combination of 30 μg/ml of the extract and retinyl acetate (1 μg/ml) were observed on both the A172 (A) and U87 MG (B) cell lines. The solvent control and the final ethanol concentration for every well was 2%.

CC1=C(/C=C/C(C)=C/C=C/C(C)=C/C(=O)O)C(C)(C)CCC1 [Retinoic acid, all-trans-Retinoic acid]
effect on cellular growth [1]: slight growth retarding effect | effect on cellular growth [2]: slightly reduced the cellular growth | median tumor volume ([3]; MR31E25C1 484.5 mg/kg 3x daily, retinoic acid 25 mg/kg 2x daily for 2 days, then 10 mg/kg daily, FIG. 5): even aggravated the situation | cumulative metastases area in various organs ([3]; same doses, vs untreated PAN02 inoculated group, FIG. 6): only slight reduction of the overall metastasis development

CC(=O)OC/C=C(C)/C=C/C=C(C)/C=C/C1=C(C)CCCC1(C)C [retinyl acetate, Retinyl Acetate]
effect on cellular growth [4]: did not affect cellular growth; also recorded: do not affect cellular growth | effect on cellular growth [5]: did not affect cellular growth; also recorded: do not affect cellular growth
